The target of assay [1] is T1, HIV-1 wild type reverse transcriptase (Human immunodeficiency virus type 1 group M subtype B, UniProt P03366).
T1 construct: HIV-1 wild type reverse transcriptase
The assay is described as follows: biochemical. The note with it: read-out: IC50 WT RT. How it is done: (§1) Utilizing the Reverse Transcriptase (RT) Assay described below, compounds were tested for their ability to inhibit the RNA-dependent DNA polymerase activity of HIV-1 RT. Certain specific compounds described in the Examples and in Tables 1-4, were so tested. The results of this testing appear in Table 5 as ranges of IC50 (nM) and EC50 (nM).
(§2) Reverse Transcriptase (RT) Assays

The target in assay [2] is T2, HIV-1 RT double mutant K103N/Y181C (Human immunodeficiency virus type 1 group M subtype B, UniProt P03366, K702N/Y780C).
T2 construct: HIV-1 wild type reverse transcriptase as well as the clinically significant double mutant K103N/Y181C
The assay is described as follows: biochemical. How it is done: as §1, §2

Where [3] appears, read: RT double mutant K103N/Y181C, read-out: IC50 K103N/Y181C.

pIC50: −log10 of the molar value. Where two headings read alike, the source gives them in different places. Where only a bound is given, the exact number is not on record here.

Consider `CCN1c2ncc(CCOc3ccc(-c4cccc(C(C)C(=O)O)c4)cc3C)cc2C(=O)N(C)c2cccnc21` (centres unmarked) [Entry 1016], for which the pIC50 in assay [1] (wild type RT) was over 7.30; in assay [2] (setting [3]), 7.00 to 7.30.

For the molecule `CCN1c2ncc(CCOc3ccc(-c4ccc(C(=O)O)c(C)c4)cc3C)cc2C(=O)N(C)c2cccnc21` [Entry 1017], the pIC50 in assay [1] (wild type RT) and in assay [2] (setting [3]) was over 7.30 in each case.

On to `CCN1c2ncc(CCOc3ccc(-c4ccc(C(=O)O)c(F)c4)cc3C)cc2C(=O)N(C)c2cccnc21` [Entry 1018], for which the pIC50 in assay [1] (wild type RT) and in assay [2] (setting [3]) was over 7.30 throughout.

As to `CCN1c2ncc(CCOc3ccc(-c4cc(Cl)c(C(=O)O)cc4F)cc3C)cc2C(=O)N(C)c2cccnc21` [Entry 1020], the pIC50 in assay [1] (wild type RT) and in assay [2] (setting [3]) was over 7.30 throughout.

In the case of `CCN1c2ncc(CCOc3ccc(-c4ccc(CC(=O)O)cc4C)cc3C)cc2C(=O)N(C)c2cccnc21` [Entry 1023], in assay [2] (setting [3]), the pIC50 was 7.00 to 7.30.

As to `CCN1c2ncc(CCOc3ccc(-c4ccc(CC(=O)O)cc4Cl)cc3C)cc2C(=O)N(C)c2cccnc21` [Entry 1025], the pIC50 in assay [1] (wild type RT) and in assay [2] (setting [3]) was over 7.30 throughout.

In the case of `CCN1c2ncc(CCOc3ccc(-c4ccc(CC(=O)O)cc4[N+](=O)[O-])cc3C)cc2C(=O)N(C)c2cccnc21` [Entry 1027], the pIC50 in assay [1] (wild type RT) is over 7.30; in assay [2] (setting [3]) it was 7.00 to 7.30.

On to `CCN1c2ncc(CCOc3ccc(-c4cc(C(=O)O)ccc4F)cc3C)cc2C(=O)N(C)c2cccnc21` [Entry 1029], for which the pIC50 is over 7.30 in assay [1] (wild type RT) and 7.00 to 7.30 in assay [2] (setting [3]).

On to `CCN1c2ncc(CCOc3ccc(-c4cc(C(=O)O)ccc4OC)cc3C)cc2C(=O)N(C)c2cccnc21` [Entry 1030], for which the pIC50 in assay [1] (wild type RT) is over 7.30; in assay [2] (setting [3]), under 7.00.

In the case of `CCN1c2ncc(CCOc3ccc(-c4nc(C(=O)O)cs4)cc3)cc2C(=O)N(C)c2cccnc21` [Entry 1039], the pIC50 is over 7.30 in assay [1] (wild type RT) and under 7.00 in assay [2] (setting [3]).

For the molecule `CCN1c2ncc(CCOc3ccc(-c4cc(C(=O)O)on4)cc3)cc2C(=O)N(C)c2cccnc21` [Entry 1040], the pIC50 in assay [1] (wild type RT) was over 7.30; in assay [2] (setting [3]), under 7.00.

Turning to `CCN1c2ncc(CCOc3ccc(-c4ccc(C(=O)O)o4)cc3)cc2C(=O)N(C)c2cccnc21` [Entry 1045], the pIC50 in assay [1] (wild type RT) is over 7.30; in assay [2] (setting [3]), 7.00 to 7.30.

On to `CCN1c2ncc(CCOc3ccc(-c4ccc(CCC(=O)O)o4)cc3)cc2C(=O)N(C)c2cccnc21` [Entry 1048], for which the pIC50 in assay [1] is over 7.30; in assay [2] (setting [3]), under 7.00.

Regarding `CCN1c2ncc(CCOc3ccc(-c4ccc(CCC(=O)O)o4)cc3C)cc2C(=O)N(C)c2cccnc21` [Entry 1049], the figures for the pIC50 in assay [1] and in assay [2] (setting [3]) were over 7.30 and under 7.00, respectively.

For the molecule `CCN1c2ncc(CCOc3ccc(-c4occc4C(=O)O)cc3)cc2C(=O)N(C)c2cccnc21` [Entry 1050], the pIC50 in assay [1] (wild type RT) is under 7.00.

For `CCN1c2ncc(CCOc3ccc(-c4ccc(F)c(CC(=O)O)c4)cc3C)cc2C(=O)N(C)c2cccnc21` [Entry 1057], the pIC50 in assay [1] (wild type RT) and in assay [2] (setting [3]) was over 7.30 each time.

Regarding `CCN1c2ncc(CCOc3ccc(-c4ncccn4)cc3)cc2C(=O)N(C)c2cccnc21` [Entry 1061], the pIC50 is over 7.30 in assay [1] (wild type RT) and under 7.00 in assay [2] (setting [3]).

For `CCN1c2ncc(CCOc3ccc(-c4cncnc4)cc3)cc2C(=O)N(C)c2cccnc21` [Entry 1062], the pIC50 in assay [1] (wild type RT) is over 7.30; in assay [2] (setting [3]), under 7.00.

In the case of `CCN1c2ncc(CCOc3ccc(-c4cc(C)ccn4)cc3C)cc2C(=O)N(C)c2cccnc21` [Entry 1065], the pIC50 in assay [1] (wild type RT) and in assay [2] (setting [3]) was over 7.30 throughout.

Turning to `CCN1c2ncc(CCOc3ccc(-c4cccnc4C)cc3C)cc2C(=O)N(C)c2cccnc21` [Entry 1074], the pIC50 in assay [1] (wild type RT) and in assay [2] (setting [3]) was over 7.30 in each case.

Turning to `CCN1c2ncc(CCOc3ccc(-c4cnccc4C)cc3C)cc2C(=O)N(C)c2cccnc21` [Entry 1076, 11-Ethyl-5,11-dihydro-5-methyl-8-{2-[2-methyl-4-(4-methyl-3-pyridinyl)phenoxy]ethyl}-6H-dipyrido[3,2-b:2′,3′-e][1,4]diazepin-6-one], the pIC50 in assay [1] (wild type RT) and in assay [2] was over 7.30 throughout.

As to `CCN1c2ncc(CCOc3ccc(-c4c[n+]([O-])ccc4C)cc3C)cc2C(=O)N(C)c2cccnc21` [Entry 1077, 11-Ethyl-5,11-dihydro-5-methyl-8-{2-[2-methyl-4-(4-methyl-1-oxido-3-pyridinyl)phenoxy]ethyl}-6H-dipyrido[3,2-b:2′,3′-e][1,4]diazepin-6-one], the pIC50 in assay [1] (wild type RT) and in assay [2] was over 7.30 each time.

For `CCN1c2ncc(CCOc3ccc(-c4ccc(C)[n+]([O-])c4C)cc3C)cc2C(=O)N(C)c2cccnc21` [Entry 1078], the pIC50 in assay [1] (wild type RT) and in assay [2] (setting [3]) was over 7.30 each time.

Take `CCN1c2ncc(CCOc3ccc(-c4ccc(N)nc4)cc3C)cc2C(=O)N(C)c2cccnc21` [Entry 1079]: the pIC50 in assay [1] (wild type RT) and in assay [2] (setting [3]) was over 7.30 each time.

On to `CCN1c2ncc(CCOc3ccc(-c4cnc(N)c(C)c4)cc3C)cc2C(=O)N(C)c2cccnc21` [Entry 1080], for which the pIC50 in assay [1] (wild type RT) and in assay [2] (setting [3]) was over 7.30 each time.

As for `CCN1c2ncc(CCOc3ccc(-c4ccc(N)nc4C)cc3C)cc2C(=O)N(C)c2cccnc21` [Entry 1081], the pIC50 in assay [1] (wild type RT) and in assay [2] (setting [3]) was over 7.30 each time.

As for `CCN1c2ncc(CCOc3ccc(-c4cc(C)cnc4N)cc3C)cc2C(=O)N(C)c2cccnc21` [Entry 1082], the pIC50 in assay [1] (wild type RT) and in assay [2] (setting [3]) was over 7.30 throughout.

Take `CCN1c2ncc(CCOc3ccc(-c4cc[n+]([O-])cc4)cc3C)cc2C(=O)N(C)c2cccnc21` [Entry 1084]: the pIC50 in assay [1] (wild type RT) and in assay [2] (setting [3]) was over 7.30 throughout.

For the molecule `CCN1c2ncc(CCOc3ccc(-c4ccnc(C)c4)cc3C)cc2C(=O)N(C)c2cccnc21` [Entry 1085], the pIC50 in assay [1] (wild type RT) and in assay [2] (setting [3]) was over 7.30 each time.

Turning to `CCN1c2ncc(CCOc3ccc(-c4cc[n+]([O-])c(C)c4)cc3C)cc2C(=O)N(C)c2cccnc21` [Entry 1086], the pIC50 in assay [1] (wild type RT) and in assay [2] (setting [3]) was over 7.30 throughout.

Regarding `CCN1c2ncc(CCOc3ccc(-c4cc(C)nc(C)c4)cc3C)cc2C(=O)N(C)c2cccnc21` [Entry 1087], the pIC50 in assay [1] (wild type RT) and in assay [2] (setting [3]) was over 7.30 throughout.

Consider `CCN1c2ncc(CCOc3ccc(-c4cc(C)[n+]([O-])c(C)c4)cc3C)cc2C(=O)N(C)c2cccnc21` [Entry 1088], for which the pIC50 in assay [1] (wild type RT) and in assay [2] (setting [3]) was over 7.30 in each case.

Regarding `CCN1c2ncc(CCOc3ccc(-c4cscn4)cc3)cc2C(=O)N(C)c2cccnc21` [Entry 1092], the pIC50 is over 7.30 in assay [1] (wild type RT) and under 7.00 in assay [2] (setting [3]).

Turning to `CCN1c2ncc(CCOc3ccc(-c4cc(F)c(O)c(F)c4)cc3C)cc2C(=O)N(C)c2cccnc21` [Entry 1103], the figures for the pIC50 in assay [1] (wild type RT) and in assay [2] (setting [3]) were over 7.30 and 7.00 to 7.30, respectively.

`CCN1c2ncc(CCOc3cccc(-c4ccc(C(=O)O)cc4)c3)cc2C(=O)N(C)c2cccnc21` [Entry 2001, 3′-[2-(11-Ethyl-6,11-dihydro-5-methyl-6-oxo-5H-dipyrido[3,2-b:2′,3′-e][1,4]diazepin-8-yl)ethoxy]-[1,1′-biphenyl]-4-carboxylic acid]: the pIC50 in assay [1] (wild type RT) was under 7.00.

Turning to `CCN1c2ncc(CCOc3cccc(-c4cccc(C(=O)O)c4)c3)cc2C(=O)N(C)c2cccnc21` [Entry 2002], in assay [1] (wild type RT), the pIC50 is under 7.00.

For the origin of these results see patent publication US6806265B2, “Non-nucleoside reverse transcriptase inhibitors” (priority 2002, dated 2004).
